Assay results from PMC8372404 (Frontiers in Neuroscience, 2021).
Where a SMILES comes first, the peptide text is derived from it.

Tests used:
[1] = biological target: [3H]-LCGA-17 binding site in rat brain membranes (putative α2δ); assay: [3H]-LCGA-17 radioligand competition binding assay; conditions: rat brain membranes
BALB/c mice [2] = assay: Elevated plus maze (EPM); assay type: in vivo
Procedure: The open field test (OFT) was used to assess locomotion. The total distance traveled in a 5 min session was recorded using Ethovision XT14 ([Prut and Belzung, 2003]). The elevated plus maze (EPM) and the marble burying test (MBT) were used to assess anxiolytic-like drug activity. For the EPM ([Pellow et al., 1985]), the percentage of time spent in the open arms, the percentage of open arm entries, and the number of total arm entries during a 5-min session were recorded using Ethovision. “Anxiety Index” (AI), an integrative behavioral measure in the EPM was calculated as follows: 100 × {1 − [(time spent on open arms/total time on the maze)/2 + (number of entries to the open arms/total exploration on the maze)/2]} ([Cohen et al., 2011]). The MBT ([Njung’e and Handley, 1991]) was carried out in a 19 × 29 × 13 cm cage filled 5 cm deep with wood-chip bedding. Twenty marbles (5.2 g, 15 mm diameter, randomly colored) were evenly placed on the surface of the bedding in four rows of five pieces. At the end of a 30 min test, the animal was removed, and the marbles buried in bedding by at least two-thirds were recorded. […] The forced swim test (FST) was used for a preliminary assessment of antidepressant drug activity as described ([Colelli et al., 2014]). Briefly, on day one the mice were exposed to a 10 min pre-swim in a cylinder filled with 24 ± 1°C water. The next day they were re-exposed to the same apparatus for a 5 min test session with the behavior video recorded. The total time spent immobile was quantitated off-line visually. The interval between sequential behavioral tests was 2–3 days with the sequence OFT, EPM, MBT, and FST. All the testing and data analyses were performed by experimenters blind to treatment.

Danio rerio [3] = assay: Novel tank test (NTT); assay type: in vivo; conditions: exp group
Procedure: (§1) Control groups were treated in parallel with vehicle alone. For drug injection, the fish were anesthetized briefly by placing them in 10°C water. The vehicle controls were tested in parallel.
(§2) Behavioral testing was initiated 10 min after drug injection, starting with the novel tank test (NTT), followed immediately thereafter by the light–dark box (LDB) and the social preference test (SPT). The NTT was adapted from [Maximino et al. (2013)] with the behavior video-recorded and the data processed using EthoVision XT14 (Noldus). The distance traveled, speed, number of visits to the bottom, middle and top thirds of the aquarium, respectively, and the times spent in each of these zones during the initial 5 min in the tank were recorded. A decreased time spent at the surface of the NTT apparatus reflects a reduction in exploratory behavior or increased hiding motivation ([Sackerman et al., 2010]). The behavior in the LDB ([Maximino et al., 2011]) and SPT ([Parker et al., 2014]) was video recorded and processed using RealTimer (Open Science LCC, Russia). The fish were added to the center zone of a three-zone aquarium and allowed to adapt for 1–2 min before removal of the septa separating the center from the flanking zones. The time spent and the number of visits to the light and dark flanking zones and the latency to enter the lit zone were recorded during a 5-min session. Stress of fish is associated with increased time spent in the dark compartment (scototaxis) ([Maximino et al., 2011]). For the SPT, the residence time and the number of visits to the three equally sized zones (near the shoal, in the center zone of the aquarium, and near the wall opposite to the shoal) were assessed during a 5-min session. Increased shoal preference (shoaling reflex) is thought to represent a protective response to a predator ([Nguyen et al., 2014]). All behavioral testing was done in the light phase using 500 lux (NTT, LDB) or 200 lux (SPT) illumination.

Danio rerio [4] = assay: Light–dark box (LDB); assay type: in vivo; conditions: for LDB. Time spent in lit compartment, Median: 5 min session, exp group
Procedure: as §1, §2

Danio rerio [5] = assay: Social preference test (SPT); assay type: in vivo; conditions: for SPT. Time spent out of shoaling zone, Median: 5 min session, exp group
Procedure: as §1, §2

BALB/c mice [6] = assay: Open field test (OFT); assay type: in vivo; conditions: diazepam 0.75 mg/kg
Procedure: (§3) The open field test (OFT) was used to assess locomotion. The total distance traveled in a 5 min session was recorded using Ethovision XT14 ([Prut and Belzung, 2003]). The elevated plus maze (EPM) and the marble burying test (MBT) were used to assess anxiolytic-like drug activity. For the EPM ([Pellow et al., 1985]), the percentage of time spent in the open arms, the percentage of open arm entries, and the number of total arm entries during a 5-min session were recorded using Ethovision. “Anxiety Index” (AI), an integrative behavioral measure in the EPM was calculated as follows: 100 × {1 − [(time spent on open arms/total time on the maze)/2 + (number of entries to the open arms/total exploration on the maze)/2]} ([Cohen et al., 2011]). The MBT ([Njung’e and Handley, 1991]) was carried out in a 19 × 29 × 13 cm cage filled 5 cm deep with wood-chip bedding. Twenty marbles (5.2 g, 15 mm diameter, randomly colored) were evenly placed on the surface of the bedding in four rows of five pieces. At the end of a 30 min test, the animal was removed, and the marbles buried in bedding by at least two-thirds were recorded. […] The next day they were re-exposed to the same apparatus for a 5 min test session with the behavior video recorded. The total time spent immobile was quantitated off-line visually. […]

BALB/c mice [7] = assay: Marble burying test (MBT); assay type: in vivo; conditions: diazepam 0.75 mg/kg
Procedure: as §3

BALB/c mice [8] = assay: Forced swim test (FST); assay type: in vivo; conditions: LCGA-17 5 mg/kg (none of the other dosages); diazepam 0.75 mg/kg
Procedure: as §3

[9] = Preliminary pharmacokinetic studies; assay type: in vivo; conditions: preliminary and ongoing pharmacokinetic studies
[10] = LCGA-17 20 mg/kg + bicuculline 5 mg/kg
[11] = bicuculline study: LCGA-17 20 mg/kg or bicuculline 5 mg/kg alone
[12] = LCGA-17 groups 1, 5, 10, 20 mg/kg combined

CN1CCc2cc3c(cc2[C@H]1[C@@H]1OC(=O)c2c1ccc1c2OCO1)OCO3 [Bicuculline]
IC50 ([1]; competition of [3H]-LCGA-17 (16 nM) binding, Table S1): > 100 µM
cross-reactivity with / competition at the [3H]-LCGA-17 binding site ([1]; result in words): no cross-reactivity
EPM, effect of co-administered bicuculline on the LCGA-17 effect on % time on open arms (BALB/c mice [2]; [10]): completely blocked
EPM, effect of co-administered bicuculline on the LCGA-17 effect on open arm entries (BALB/c mice [2]; [10]): reduced the LCGA-17 effect
EPM, effect of cotreatment with bicuculline on the LCGA-17 effect on AI (BALB/c mice [2]; [10]): reversed
EPM, effect on open arm entries, single agent (BALB/c mice [2]; bicuculline 5 mg/kg alone): without effects
EPM, effect on total arm entries (BALB/c mice [2]; bicuculline 5 mg/kg main effect, post hoc pairwise comparisons not significant): slightly reduced
EPM, effect on % time on open arms, single agent (BALB/c mice [2]; [11]): no effect
EPM, effect on Anxiety Index (AI), single agent (BALB/c mice [2]; [11]): without effects

CN1C(=O)CN=C(c2ccccc2)c2cc(Cl)ccc21 [Diazepam]
NTT. Distance traveled, Median (Danio rerio [3]; 1.25 mg/kg): 887 cm
NTT. Distance traveled, Median (Danio rerio [3]; 5 mg/kg): 595 cm
LDB. Time spent in lit compartment, Median (Danio rerio [4]; 1.25 mg/kg): 21 s
LDB. Time spent in lit compartment, Median (Danio rerio [4]; 5 mg/kg): 177 s
LDB, effect on time spent in the lit compartment vs vehicle (Danio rerio [4]; most informative dosage, Figure 2C): anxiolytic-like effect
SPT. Time spent out of shoaling zone, Median (Danio rerio [5]; 1.25 mg/kg): 20 s
SPT. Time spent out of shoaling zone, Median (Danio rerio [5]; 5 mg/kg): 21 s
SPT, effect on time spent out of the shoaling zone vs vehicle (Danio rerio [5]; most informative dosage, Figure 2D): anxiolytic-like effect
EPM, effect on percentage of time spent on open arms vs vehicle (BALB/c mice [2]; mouse, in vivo): increased
OFT, effect on distance traveled vs vehicle (BALB/c mice [6]; LCGA-17 5, 20 mg/ml as printed, 5 min session): modestly increased
OFT, effect on distance traveled vs vehicle (BALB/c mice [6]; [12]): increased
MBT, effect on number of marbles buried vs vehicle (BALB/c mice [7]; LCGA-17 5, 20 mg/kg, 30 min test): reduced
MBT, effect on number of marbles buried vs vehicle (BALB/c mice [7]; [12]): reduced
FST, effect on total time spent immobile vs vehicle (BALB/c mice [8]): failed to affect the behavior

NC(=O)CC[C@H](NC(=O)[C@@H](N)Cc1ccccc1)C(=O)N[C@@H](CO)C(=O)N[C@@H](CCC(=O)O)C(=O)O [LCGA-17, PheGlnSerGlu] (H-FQSE-OH; N-terminus and C-terminus assumed)
in vivo half-life [9]: minutes
